Experimental data taken from patent US20240034729A9, “HETEROCYCLIC COMPOUND, INTERMEDIATE, PREPARATION METHOD THEREFOR AND APPLICATION THEREOF” (WUHAN LL SCIENCE AND TECHNOLOGY DEVELOPMENT CO., LTD., priority 2018, published 2024).
Like-named read-outs stand apart in the source and are kept apart here.

Target: hP2X3 (human purinergic P2X receptor subtype 3) (Homo sapiens (Human), UniProt P56373)
Assay: FLIPR calcium assay, hP2X3 expressed in HEK293 cells
Type: cell-based
Conditions: read-out: P2X3 IC50
[1] = HEK293 cells expressing hP2X3, agonist BZ-ATP 2.5 μM, class symbols

Sequence of hP2X3 (human purinergic P2X receptor subtype 3) (P56373 whole entry): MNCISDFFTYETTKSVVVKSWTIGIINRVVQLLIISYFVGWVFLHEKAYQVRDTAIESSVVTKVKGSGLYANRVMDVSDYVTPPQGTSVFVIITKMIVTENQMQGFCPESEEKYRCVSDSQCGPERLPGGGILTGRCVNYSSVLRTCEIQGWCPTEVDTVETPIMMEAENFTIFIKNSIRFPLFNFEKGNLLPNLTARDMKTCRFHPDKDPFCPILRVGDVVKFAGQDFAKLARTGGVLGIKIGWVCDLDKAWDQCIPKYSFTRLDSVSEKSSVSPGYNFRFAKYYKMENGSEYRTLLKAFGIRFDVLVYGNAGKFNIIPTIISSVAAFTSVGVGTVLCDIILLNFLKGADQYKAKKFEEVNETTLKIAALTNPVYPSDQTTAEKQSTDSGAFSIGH

| Compound | IC50 [1] [nM] | IC50 [nM] |
| --- | --- | --- |
| COC(=O)N1CCO[C@@H](Cc2c(-c3c(F)cc(-c4ccon4)cc3F)nc3cc(C)ccn23)C1 [Compound 16, methyl (S)-2-((2-(2,6-difluoro-4-(isoxazol-3-yl)phenyl)-7-methylimidazo[1,2-a]pyridin-3-yl)methyl)morpholine-4-carboxylate] | – | 10 to 50 |
| CNC(=O)c1cc(F)c(-c2nc3cc(C)ccn3c2CC(N)=O)c(F)c1 [Compound 19, 4-(3-(2-amino-2-oxoethyl)-7-methylimidazo[1,2-a]pyridine)-3,5-difluorobenzoylmethylamine] | 200 to 5000 | – |
| COC(=O)N1CCO[C@@H](Cc2c(-c3c(F)cc(N4C(=O)C=CC4=O)cc3F)nc3cc(C)ccn23)C1 [Compound 28, methyl (S)-2-((2-(2,6-difluoro-4-(2,5-dioxo-2,5-dihydropyrrol-1-yl)phenyl)-7-methylimidazo[1,2-a]pyridin-3-yl)methyl)morpholine-4-carboxylate] | – | 10 to 50 |
| COC(=O)N1CCO[C@@H](Cc2c(C3CCN(C(C)=O)CC3)nc3cc(C)ccn23)C1 [Compound 30, methyl (S)-2-((2-(1-acetylpiperidin-4-yl)-7-methylimidazo[1,2-a]pyridin-3-yl)methyl)morpholine-4-carboxylate] | – | 10 to 50 |
| CNC(=O)c1cc(F)c(-c2nc3cc(C)ccn3c2CN2CCNC(=O)C2)c(F)c1 [Compound 31] | 200 to 5000 | – |
| CNC(=O)c1cc(F)c(-c2nc3cc(C)ccn3c2CN2CCN(C(=O)OC)CC2)c(F)c1 [Compound 32] | 200 to 5000 | – |
| COC(=O)N1CCO[C@@H](Cc2c(-c3c(F)cc(-c4nc(Cl)c[nH]4)cc3F)nc3cc(C)ccn23)C1 [Compound 34, methyl (S)-2-((2-(4-(4-chloro-1H-imidazol-2-yl)-2,6-difluorophenyl)-7-methylimidazo[1,2-a]pyridin-3-yl)methyl)morpholine-4-carboxylate] | – | < 10 |
| CNC(=O)Oc1cc(F)c(-c2nc3cc(C)ccn3c2C[C@H]2CN(C(=O)OC)CCO2)c(F)c1 [Compound 36, methyl (S)-2-((2-(2,6-difluoro-4-(methylcarbamoyloxy)phenyl)-7-methylimidazo[1,2-a]pyridin-3-yl)methyl)morpholine-4-carboxylate] | 10 to 50 | – |
| COC(=O)N1CCO[C@@H](Cc2c(-c3c(F)cc(-c4nc(C(F)(F)F)c[nH]4)cc3F)nc3cc(C)ccn23)C1 [Compound 37, methyl (S)-2-((2-(2,6-difluoro-4-(4-trifluoromethyl-1H-imidazol-2-yl)phenyl)-7-methylimidazo[1,2-a]pyridin-3-yl)methyl)morpholine-4-carboxylate] | – | < 10 |
| COC(=O)N1CCO[C@@H](Cc2c(-c3c(F)cc(-c4nc(C#N)c[nH]4)cc3F)nc3cc(C)ccn23)C1 [Compound 38, methyl (S)-2-((2-(2,6-difluoro-4-(4-cyano-1H-imidazol-2-yl)phenyl)-7-methylimidazo[1,2-a]pyridin-3-yl)methyl)morpholine-4-carboxylate] | – | < 10 |
| CNC(=O)c1cc(F)c(-c2[nH]c3cc(C)ccc3c2C[C@H]2CN(C(=O)OC)CCO2)c(F)c1 [Compound 39] | 200 to 5000 | – |
| CNC(=O)c1cc(F)c(-c2cc3cc(C)ccc3n2C[C@H]2CN(C(=O)OC)CCO2)c(F)c1 [Compound 40, methyl (S)-2-((2-(2,6-difluoro-4-(methylcarbamoyl)phenyl)-5-methyl-1H-indol-1-yl)methyl)morpholine-4-carboxylate] | 200 to 5000 | – |
| CNC(=O)c1cc(F)c(C2=CC3C=C(C)C=CN3N2C[C@H]2CN(C(=O)OC)CCO2)c(F)c1 (some centres unmarked) [Compound 41] | 200 to 5000 | – |
| CNC(=O)c1cc(F)c(-c2nc3cc(C)ncn3c2C[C@H]2CN(C(=O)OC)CCO2)c(F)c1 [Compound 42, methyl (S)-2-((2-(2,6-difluoro-4-(methylcarbamoyl)phenyl)-7-methylimidazo[1,2-c]pyrimidin-3-yl)methyl)morpholine-4-carboxylate] | – | < 10 |
| CNS(=O)(=O)c1cc(F)c(-c2nc3cc(C)ccn3c2C[C@H]2CN(C(=O)OC)CCO2)c(F)c1 [Compound 43, methyl (S)-2-((2-(2,6-difluoro-4-(N-methylsulfamoyl)phenyl)-7-methylimidazo[1,2-a]pyridin-3-yl)methyl)morpholine-4-carboxylate] | – | < 10 |
| CNC(=O)c1cc(F)c(-c2nc3n(c2C[C@H]2CN(C(=O)OC)CCO2)CCC(C)C3)c(F)c1 (stereo partly drawn) [Compound 44, methyl (2S)-2-((2-(2,6-difluoro-4-(methylcarbamoyl)phenyl)-7-methyl-5,6,7,8-tetrahydroimidazo[1,2-a]pyridin-3-yl)methyl)morpholine-4-carboxylate] | – | < 10 |
| CNC(=O)c1cc(F)c(-c2nc3cc(C)ccn3c2CN2CCOCC2=O)c(F)c1 [Compound 47, 3,5-difluoro-N-methyl-4-(7-methyl-3-((3-oxo-4-morpholinyl)methyl)imidazo[1,2-a]pyridin-2-yl)benzamide] | 200 to 5000 | – |
| CNC(=O)c1cc(F)c(-c2nc3cc(C)ccn3c2CN2CCNCC2=O)c(F)c1 [Compound 48, (S)-2-((2-(2,6-difluoro-4-(methylcarbamoyl)phenyl)-7-methylimidazo[1,2-a]pyridin-3-yl)methyl)-2-carbonyl-piperazine] | – | 50 to 200 |
| COC(=O)c1cc(F)c(-c2nc3cc(C)ccn3c2C[C@H]2CN(C(=O)OC)CCO2)c(F)c1 [Compound 49, methyl (S)-2-((2-(2,6-difluoro-4-carbomethoxyphenyl)-7-methylimidazo[1,2-a]pyridin-3-yl)-methyl)morpholine-4-carboxylate] | – | < 10 |
| CCOC(=O)c1cn(-c2cc(F)c(-c3nc4cc(C)ccn4c3C[C@H]3CN(C(=O)OC)CCO3)c(F)c2)cn1 [Compound 51, methyl (S)-2-((2-(4-(4-(carbethoxy<ethoxycarbonyl>)-1H-imidazol-1-yl)-2,6-difluorophenyl)-7-methylimidazo[1,2-a]pyridin-3-yl)methyl)morpholine-4-carboxylate] | – | 50 to 200 |
| CNC(=O)c1cc(F)c(-c2oc3cc(C)ncc3c2C[C@H]2CN(C(=O)OC)CCO2)c(F)c1 [Compound 55, methyl (S)-2-((2-(2,6-difluoro-4-(methylcarbamoyl)phenyl)-6-methylfurano[3,2-c]pyridin-3-yl)methyl)morpholine-4-carboxylate] | – | < 10 |
| CNC(=O)c1cc(F)c(-c2oc3nc(C)ccc3c2C[C@H]2CN(C(=O)OC)CCO2)c(F)c1 [Compound 56, methyl (S)-2-((2-(2,6-difluoro-4-(methylcarbamoyl)phenyl)-6-methylfurano[2,3-b]pyridin-3-yl)methyl)morpholine-4-carboxylate] | – | < 10 |
| CNC(=O)c1cc(F)c(-c2nn3cc(C)ccc3c2C[C@H]2CN(C(=O)OC)CCO2)c(F)c1 [Compound 57] | – | < 10 |
| CNC(=O)c1cc(F)c(-c2nc3n(c2C[C@H]2CN(C(=O)OC)CCO2)CCN(C)C3)c(F)c1 [Compound 62] | 200 to 5000 | – |
| CNC(=O)Cc1cc(F)c(-c2nc3cc(C)ccn3c2C[C@H]2CN(C(=O)OC)CCO2)c(F)c1 [Compound 64, methyl (S)-2-((2-(4-(2-(methylamino)-2-oxoethyl)-2,6-difluorophenyl)-7-methylimidazo[1,2-a]pyridin-3-yl)methyl) morpholine-4-carboxylate] | – | 50 to 200 |
| COC(=O)N1CCO[C@@H](Cc2c(-c3c(F)cc(C4(C(N)=O)CC4)cc3F)nc3cc(C)ccn23)C1 [Compound 65] | – | 50 to 200 |

Now from value to compound, other results behind:

| IC50 [1] [nM] | Compound | IC50 [nM] |
| --- | --- | --- |
| 200 to 5000 | COC(=O)N1CCO[C@@H](Cc2c(-c3cnc(NC(C)=O)[nH]3)nc3cc(C)ccn23)C1 [Compound 1] | – |
| 200 to 5000 | CNC(=N)c1cc(F)c(-c2nc3cc(C)ccn3c2C[C@H]2CN(C(=O)OC)CCO2)c(F)c1 [Compound 8, methyl (S)-2-((2-(2,6-difluoro-4-(N-methylcarbamimidoyl)phenyl)-7-methylimidazo[1,2-a]pyridin-3-yl)methyl)morpholine-4-carboxylate] | – |
| 200 to 5000 | COC(=O)N1CCO[C@@H](Cc2c(-c3c(F)cc(-c4nccn4C)cc3F)nc3cc(C)ccn23)C1 [Compound 9, methyl (S)-2-((2-(2,6-difluoro-4-(1-methyl-1H-imidazol-2-yl)phenyl)-7-methylimidazo[1,2-a]pyridin-3-yl)methyl)morpholine-4-carboxylate] | – |
| 200 to 5000 | COC(=O)N1CCO[C@@H](Cc2c(-c3c(F)cc(C(C)=O)cc3F)nc3cc(C)ccn23)C1 [Compound 14, methyl (S)-2-((2-(4-acetyl-2,6-difluorophenyl)-7-methylimidazo[1,2-a]pyridin-3-yl)methyl)morpholine-4-carboxylate] | – |
| 200 to 5000 | CCOC(=O)N1CCO[C@@H](Cc2c(C(=O)Nc3cc(F)cc(F)c3)nc3cc(C)ccn23)C1 [Compound 20] | – |
| 200 to 5000 | CNC(=O)c1ccc(-c2nc3cc(C)ccn3c2C[C@H]2CN(C(=O)OC)CCO2)s1 [Compound 21, methyl (S)-2-((7-methyl-2-(5-(methylcarbamoyl)thiophen-2-yl)imidazo[1,2-a]pyridin-3-yl)methyl)morpholine-4-carboxylate] | – |
| 200 to 5000 | CNC(=O)c1coc(-c2nc3cc(C)ccn3c2C[C@H]2CN(C(=O)OC)CCO2)c1F [Compound 22] | – |
| 200 to 5000 | CNC(=O)c1csc(-c2nc3cc(C)ccn3c2C[C@H]2CN(C(=O)OC)CCO2)c1F [Compound 23] | – |
| 200 to 5000 | CNC(=O)c1c[nH]c(-c2nc3cc(C)ccn3c2C[C@H]2CN(C(=O)OC)CCO2)c1F [Compound 24] | – |
| 200 to 5000 | COC(=O)N1CCO[C@@H](Cc2c(-c3c(F)cc(O)cc3F)nc3cc(C)ccn23)C1 [Compound 35, methyl (S)-2-((2-(2,6-difluoro-4-hydroxyphenyl)-7-methylimidazo[1,2-a]pyridin-3-yl)methyl)morpholine-4-carboxylate] | – |
| 200 to 5000 | COC(=O)N1CCO[C@@H](Cc2c(-c3c(F)cc(N4CCN(C)CC4=O)cc3F)nc3cc(C)ccn23)C1 [Compound 45, methyl (S)-2-((2-(2,6-difluoro-4-(4-methyl-2-oxopiperazin-1-yl)phenyl)-7-methylimidazo[1,2-a]pyridin-3-yl)methyl) morpholine-4-carboxylate] | – |
| 200 to 5000 | CNC(=O)c1cc(F)c(-c2nc3cc(C)ccn3c2C[C@H]2CN(C(=O)OC)CCN2)c(F)c1 [Compound 46] | – |
